Results: ChEMBL document CHEMBL1255476, “Telbivudine exhibits no inhibitory activity against HIV-1 clinical isolates in vitro” (Antimicrob Agents Chemother, 2010)

Tests used:
[1] = test system: HEK293; assay: Cytotoxicity against human HEK293 cells at 100 uM; type: cell-based; details: hek293, 100 µM
[2] = test system: Human immunodeficiency virus 1; assay: Antiviral activity against HIV1 NL4-3 infected in HEK293 cells assessed as inhibition of virus replication after 72 hrs; type: functional, organism-based; details: Human immunodeficiency virus 1, NL4-3, HEK293, 72 h
[3] = test system: Human immunodeficiency virus 1; assay: Antiviral activity against HIV1 subtype A isolate 1 infected in HEK293 cells assessed as inhibition of virus replication after 72 hrs; type: functional, organism-based; details: Human immunodeficiency virus 1, HEK293, 72 h
[4] = test system: Human immunodeficiency virus 1; assay: Antiviral activity against HIV1 subtype A isolate 2 infected in HEK293 cells assessed as inhibition of virus replication after 72 hrs; type: functional, organism-based; details: Human immunodeficiency virus 1, subtype A isolate 2, HEK293, 72 h
[5] = test system: Human immunodeficiency virus 1; assay: Antiviral activity against HIV1 subtype B isolate 3 infected in HEK293 cells assessed as inhibition of virus replication after 72 hrs; type: functional, organism-based; details: Human immunodeficiency virus 1, subtype B isolate 3, HEK293, 72 h
[6] = test system: Human immunodeficiency virus 1; assay: Antiviral activity against HIV1 subtype B isolate 4 infected in HEK293 cells assessed as inhibition of virus replication after 72 hrs; type: functional, organism-based; details: Human immunodeficiency virus 1, HEK293, 72 h
[7] = test system: Human immunodeficiency virus 1; assay: Antiviral activity against HIV1 subtype BF isolate 5 infected in HEK293 cells assessed as inhibition of virus replication after 72 hrs; type: functional, organism-based; details: Human immunodeficiency virus 1, subtype BF isolate 5, HEK293, 72 h
[8] = test system: Human immunodeficiency virus 1; assay: Antiviral activity against HIV1 subtype C isolate 6 infected in HEK293 cells assessed as inhibition of virus replication after 72 hrs; type: functional, organism-based; details: Human immunodeficiency virus 1, HEK293, 72 h
[9] = test system: Human immunodeficiency virus 1; assay: Antiviral activity against HIV1 subtype C isolate 7 infected in HEK293 cells assessed as inhibition of virus replication after 72 hrs; type: functional, organism-based; details: Human immunodeficiency virus 1, subtype C isolate 7, HEK293, 72 h
[10] = test system: Human immunodeficiency virus 1; assay: Antiviral activity against HIV1 subtype D isolate 8 infected in HEK293 cells assessed as inhibition of virus replication after 72 hrs; type: functional, organism-based; details: Human immunodeficiency virus 1, subtype D isolate 8, HEK293, 72 h
[11] = test system: Human immunodeficiency virus 1; assay: Antiviral activity against HIV1 expressing reverse transcriptase D67N/K70R/T215F/K219E/M184V mutant infected in HEK293 cells assessed as inhibition of virus replication after 72 hrs; type: functional, organism-based; details: Human immunodeficiency virus 1, HEK293, 72 h
[12] = test system: Human immunodeficiency virus 1; assay: Antiviral activity against HIV1 expressing reverse transcriptase K103N/Y181C/G190A mutant infected in HEK293 cells assessed as inhibition of virus replication after 72 hrs; type: functional, organism-based; details: Human immunodeficiency virus 1, HEK293, 72 h
[13] = test system: HEK293; assay: Cytotoxicity against human HEK293 cells at 600 uM; type: cell-based; details: hek293, 600 µM
[14] = test system: HEK293; assay: Cytotoxicity against human HEK293 cells at 2000 uM; type: cell-based; details: hek293, 2000 µM
[15] = Cmax in human at 600 mg; type: ADME, organism-based; set-up: dose 600 mg; details: in vivo

Row | Structure (SMILES) | Activity [1] | EC50 [2] [µM] | EC50 [3] [µM] | EC50 [4] [µM] | EC50 [5] [µM] | EC50 [6] [µM] | EC50 [7] [µM] | EC50 [8] [µM] | EC50 [9] [µM] | EC50 [10] [µM] | EC50 [11] [µM] | EC50 [12] [µM] | Activity [13] | Activity [14] | Cmax [15] [µM]
1 | C=C1[C@H](CO)[C@@H](O)C[C@@H]1n1cnc2c(=O)[nH]c(N)nc21.O [ENTECAVIR] | Non-toxic | 12.6 | 12.5 | 13.2 | 15.1 | 13.5 | 13.6 | 9.51 | 9.95 | 7.62 | > 100 | 11.7 |  |  | 
2 | Nc1ccn([C@@H]2CS[C@H](CO)O2)c(=O)n1 [LAMIVUDINE] |  | 4.68 | 3.54 | 4.48 | 4.78 | 5.43 | 4.24 | 3.9 | 4.06 | 3.25 | > 300 | 7.16 |  |  | 
3 | Cc1cn([C@@H]2C[C@@H](O)[C@H](CO)O2)c(=O)[nH]c1=O [TELBIVUDINE] |  | > 600 | > 600 | > 600 | > 600 | > 600 | > 600 | > 600 | > 600 | > 600 | > 600 | > 600 | Non-toxic | Non-toxic | 13.2
